Reference: ChEMBL document CHEMBL4834397 (J Med Chem, 2021)
Converted amounts (≈) assume the structure as drawn.

What was measured:
[1] = target: T1, Leukotriene A-4 hydrolase (Homo sapiens, UniProt P09960); assay: (§1) Inhibition of recombinant full length N-terminal His6-tagged LTA4H (unknown origin) expressed in Escherichia coli BL21 DE3 cells at enzyme concentration 9 nM using Arg-AMC as substrate preincubated for 15 mins followed by substrate addition and measured every 10 mins for 300 mins by fluorescence based assay
T1 sequence (P09960 whole entry): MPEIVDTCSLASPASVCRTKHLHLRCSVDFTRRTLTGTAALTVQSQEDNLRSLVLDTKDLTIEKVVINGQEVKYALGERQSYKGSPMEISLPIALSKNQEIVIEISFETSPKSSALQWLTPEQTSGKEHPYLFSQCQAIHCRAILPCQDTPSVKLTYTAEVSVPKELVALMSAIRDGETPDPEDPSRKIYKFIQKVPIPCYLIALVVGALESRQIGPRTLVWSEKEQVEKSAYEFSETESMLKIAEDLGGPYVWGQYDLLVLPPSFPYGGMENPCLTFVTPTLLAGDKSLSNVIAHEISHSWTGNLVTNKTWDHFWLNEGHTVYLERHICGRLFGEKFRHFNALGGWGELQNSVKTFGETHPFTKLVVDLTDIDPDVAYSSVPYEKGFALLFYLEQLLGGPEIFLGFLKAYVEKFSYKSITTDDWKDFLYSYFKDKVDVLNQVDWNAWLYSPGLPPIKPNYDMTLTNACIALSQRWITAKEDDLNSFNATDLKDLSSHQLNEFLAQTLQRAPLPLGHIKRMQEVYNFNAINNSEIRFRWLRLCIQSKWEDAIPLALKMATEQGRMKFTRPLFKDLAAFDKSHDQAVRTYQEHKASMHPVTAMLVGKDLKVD

[2] = target: T2, Leukotriene A-4 hydrolase (Homo sapiens) (UniProt P09960); details: dose 125.0 µM, time 30.0 min
T2 sequence (whole entry): T1 sequence (P09960 whole entry)

[3] = target: T2, Leukotriene A-4 hydrolase (Homo sapiens); details: dose 500.0 µM, time 30.0 min
[4] = target: T2, Leukotriene A-4 hydrolase (Homo sapiens); details: dose 1000.0 µM, time 30.0 min
[5] = target: T2, Leukotriene A-4 hydrolase (Homo sapiens); details: dose 250.0 µM, time 30.0 min
[6] = Half life in rat liver microsomes in presence of NADPH; assay type: ADME, Microsome
[7] = Solubility of compound in aqueous buffer at pH 6.8 by HPLC analysis; assay type: physicochemical
[8] = target: Voltage-gated inwardly rectifying potassium channel KCNH2 (Homo sapiens, UniProt Q12809); assay: Displacement of [3H]dofetilide from recombinant human ERG stably expressed in HEK293 cell membranes measured after 90 mins by microbeta liquid scintillation counting method; parameters: species or system Cell membrane
Sequence of Voltage-gated inwardly rectifying potassium channel KCNH2 (Q12809 whole entry): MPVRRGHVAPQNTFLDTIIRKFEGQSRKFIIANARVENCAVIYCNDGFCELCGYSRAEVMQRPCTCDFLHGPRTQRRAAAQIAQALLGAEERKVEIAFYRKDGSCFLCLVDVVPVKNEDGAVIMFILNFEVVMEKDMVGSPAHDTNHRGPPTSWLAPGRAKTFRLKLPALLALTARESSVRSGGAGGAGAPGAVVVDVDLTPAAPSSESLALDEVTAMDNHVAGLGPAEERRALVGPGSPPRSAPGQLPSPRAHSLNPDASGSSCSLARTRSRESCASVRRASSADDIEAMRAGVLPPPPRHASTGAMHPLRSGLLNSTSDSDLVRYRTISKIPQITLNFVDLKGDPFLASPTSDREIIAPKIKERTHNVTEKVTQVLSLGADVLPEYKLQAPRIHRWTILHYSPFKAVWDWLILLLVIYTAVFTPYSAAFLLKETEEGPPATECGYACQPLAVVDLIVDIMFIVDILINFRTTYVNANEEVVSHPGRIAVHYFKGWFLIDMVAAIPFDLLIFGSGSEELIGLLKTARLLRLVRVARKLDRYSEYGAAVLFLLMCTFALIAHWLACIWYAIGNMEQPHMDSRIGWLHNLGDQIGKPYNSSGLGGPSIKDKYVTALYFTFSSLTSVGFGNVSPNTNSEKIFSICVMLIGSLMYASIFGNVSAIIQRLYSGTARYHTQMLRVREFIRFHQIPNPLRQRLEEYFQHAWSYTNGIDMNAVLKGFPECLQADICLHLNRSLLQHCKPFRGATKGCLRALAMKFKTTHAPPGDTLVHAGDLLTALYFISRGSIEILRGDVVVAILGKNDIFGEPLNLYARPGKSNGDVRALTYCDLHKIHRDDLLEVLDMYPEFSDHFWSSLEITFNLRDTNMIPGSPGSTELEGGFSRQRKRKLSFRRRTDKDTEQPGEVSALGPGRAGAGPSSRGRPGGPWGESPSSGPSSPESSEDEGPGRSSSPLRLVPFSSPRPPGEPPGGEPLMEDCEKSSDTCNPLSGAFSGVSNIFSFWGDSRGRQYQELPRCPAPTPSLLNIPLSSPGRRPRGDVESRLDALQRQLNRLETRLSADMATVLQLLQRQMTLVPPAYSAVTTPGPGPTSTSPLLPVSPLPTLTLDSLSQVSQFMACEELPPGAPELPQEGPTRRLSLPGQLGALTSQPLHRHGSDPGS

Cytochrome P450 3A5 = Cytochrome P450 3A5 (Homo sapiens, UniProt P20815); assay: Reversible inhibition of CYP3A5 in human liver microsomes using midazolam as substrate incubated for 10 mins in presence of NADPH by LC-MS analysis; assay type: ADME
Sequence of Cytochrome P450 3A5 (P20815 whole entry): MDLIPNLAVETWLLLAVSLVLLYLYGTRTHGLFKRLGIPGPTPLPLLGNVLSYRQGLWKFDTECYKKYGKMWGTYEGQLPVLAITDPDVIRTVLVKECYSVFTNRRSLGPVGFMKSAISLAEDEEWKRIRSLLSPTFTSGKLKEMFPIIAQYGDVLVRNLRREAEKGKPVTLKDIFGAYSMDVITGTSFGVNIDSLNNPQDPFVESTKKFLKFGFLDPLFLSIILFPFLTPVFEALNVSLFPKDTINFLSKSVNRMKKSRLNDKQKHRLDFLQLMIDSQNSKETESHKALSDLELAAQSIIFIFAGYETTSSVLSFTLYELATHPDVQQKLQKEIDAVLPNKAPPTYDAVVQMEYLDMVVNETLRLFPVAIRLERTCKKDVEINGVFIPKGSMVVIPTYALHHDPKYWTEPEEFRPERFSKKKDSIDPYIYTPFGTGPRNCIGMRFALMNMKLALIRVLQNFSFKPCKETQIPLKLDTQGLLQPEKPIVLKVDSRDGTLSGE

Cytochrome P450 2C9 = Cytochrome P450 2C9 (Homo sapiens, UniProt P11712); assay: Reversible inhibition of CYP2C9 in human liver microsomes using […] as substrate incubated for 10 mins in presence of NADPH by LC-MS analysis; assay type: ADME
Sequence of Cytochrome P450 2C9 (P11712 whole entry): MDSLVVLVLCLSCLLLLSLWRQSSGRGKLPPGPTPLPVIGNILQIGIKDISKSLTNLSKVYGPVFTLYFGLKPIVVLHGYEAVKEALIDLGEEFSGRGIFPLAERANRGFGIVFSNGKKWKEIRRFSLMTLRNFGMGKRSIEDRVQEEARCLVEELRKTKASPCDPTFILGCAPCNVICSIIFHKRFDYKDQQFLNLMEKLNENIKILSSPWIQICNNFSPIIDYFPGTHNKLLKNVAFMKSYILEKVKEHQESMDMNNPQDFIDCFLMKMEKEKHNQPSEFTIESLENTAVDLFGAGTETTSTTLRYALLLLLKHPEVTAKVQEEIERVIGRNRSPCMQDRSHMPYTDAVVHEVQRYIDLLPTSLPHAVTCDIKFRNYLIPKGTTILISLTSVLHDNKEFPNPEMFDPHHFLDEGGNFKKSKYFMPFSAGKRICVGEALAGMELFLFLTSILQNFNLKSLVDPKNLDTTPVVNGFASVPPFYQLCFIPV

Cytochrome P450 2D6 = Cytochrome P450 2D6 (Homo sapiens, UniProt P10635); assay: Reversible inhibition of CYP2D6 in human liver microsomes using […] as substrate incubated for 10 mins in presence of NADPH by LC-MS analysis; assay type: ADME
Sequence of Cytochrome P450 2D6 (P10635 whole entry): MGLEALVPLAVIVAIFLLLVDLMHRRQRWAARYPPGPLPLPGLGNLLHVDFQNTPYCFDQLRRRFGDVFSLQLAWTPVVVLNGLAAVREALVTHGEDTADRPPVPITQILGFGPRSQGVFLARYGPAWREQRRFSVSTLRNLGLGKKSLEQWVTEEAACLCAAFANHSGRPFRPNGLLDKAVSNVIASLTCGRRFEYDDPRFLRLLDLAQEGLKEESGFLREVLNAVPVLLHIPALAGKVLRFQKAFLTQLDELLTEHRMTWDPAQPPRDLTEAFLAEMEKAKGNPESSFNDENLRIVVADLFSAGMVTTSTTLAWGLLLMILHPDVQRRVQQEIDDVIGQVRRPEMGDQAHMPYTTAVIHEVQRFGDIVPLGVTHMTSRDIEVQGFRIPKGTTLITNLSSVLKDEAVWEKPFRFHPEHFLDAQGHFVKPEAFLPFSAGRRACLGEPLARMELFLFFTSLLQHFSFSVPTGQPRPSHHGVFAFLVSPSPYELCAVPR

[9] = Drug concentration in blood isolated from C57/BL6 mouse at 10 mg/kg, po BID for 3 days measured after 14 hrs post last dose; assay type: ADME, organism-based; details: time 3 day, read-out: Ct
[10] = Drug concentration in blood isolated from C57/BL6 mouse at […], po BID for 3 days measured after 2 hrs post last dose; assay type: ADME, organism-based; details: dose 2.5 mg/kg, time 3 day, read-out: Ct
[11] = Drug concentration in blood isolated from C57/BL6 mouse at […], po BID for 3 days measured after 14 hrs post last dose; assay type: ADME, organism-based; details: dose 2.5 mg/kg, time 3 day, read-out: Ct
[12] = target: T1, Leukotriene A-4 hydrolase; assay: as §1, with “<1” for “9”
[13] = Drug concentration in plasma isolated from C57/BL6 mouse at 0.625 mg/kg, po BID for 3 days measured after 14 hrs post last dose; assay type: ADME, organism-based; details: time 3 day
[14] = Drug concentration in blood isolated from C57/BL6 mouse at 0.625 mg/kg, po BID for 3 days measured after 14 hrs post last dose; assay type: ADME, organism-based; details: time 3 day, read-out: Ct
[15] = target: T1, Leukotriene A-4 hydrolase; assay: Inhibition of LTA4H in human whole blood assessed as reduction of calcium ionophore A23187-stimulated LTB4 generation preincubated for 4 hrs followed by ionophore stimulation and measured after 15 hrs by EIA assay; assay type: tissue-based
[16] = Drug concentration in plasma isolated from C57/BL6 mouse at 10 mg/kg, po BID for 3 days measured after 2 hrs post last dose; assay type: ADME, organism-based; details: time 3 day
[17] = Drug concentration in plasma isolated from C57/BL6 mouse at 10 mg/kg, po BID for 3 days measured after 14 hrs post last dose; assay type: ADME, organism-based; details: time 3 day
[18] = Drug concentration in plasma isolated from C57/BL6 mouse at […], po BID for 3 days measured after 2 hrs post last dose; assay type: ADME, organism-based; details: dose 2.5 mg/kg, time 3 day
[19] = target: T1, Leukotriene A-4 hydrolase; assay: Inhibition of LTA4H in human PBMC assessed as reduction of calcium ionophore A23187-stimulated LTB4 generation preincubated for 4 hrs followed by ionophore stimulation and measured after 2 hrs by EIA assay; assay type: tissue-based
[20] = Drug concentration in plasma isolated from C57/BL6 mouse at […], po BID for 3 days measured after 14 hrs post last dose; assay type: ADME, organism-based; details: dose 2.5 mg/kg, time 3 day
[21] = Drug concentration in plasma isolated from C57/BL6 mouse at 0.625 mg/kg, po BID for 3 days measured after 2 hrs post last dose; assay type: ADME, organism-based; details: time 3 day
[22] = Drug concentration in blood isolated from C57/BL6 mouse at 0.625 mg/kg, po BID for 3 days measured after 2 hrs post last dose; assay type: ADME, organism-based; details: time 3 day, read-out: Ct
[23] = target: T2, Leukotriene A-4 hydrolase (Homo sapiens); details: PBMC, time 6.0 hrs
[24] = target: T2, Leukotriene A-4 hydrolase (Homo sapiens); details: Blood, time 19.0 hrs
[25] = Drug concentration in blood isolated from C57/BL6 mouse at 10 mg/kg, po BID for 3 days measured after 2 hrs post last dose; assay type: ADME, organism-based; details: time 3 day, read-out: Ct

OCc1ccc(Oc2ccccc2)cc1
IC50 [1]: 4.5 µM | ΔTm [2]: 0.08 °C | ΔTm [3]: 0.2 °C | ΔTm [4]: 0.3 °C | ΔTm [5]: 0.2 °C

N[C@@H](CC(=O)O)Cn1nnc(-c2ccc(Oc3ccc(Cl)cc3)cc2)n1
half-life [6]: 190 min | solubility [7]: 26 µM (≈ 9.72 µg/mL)

NCCCn1nnc(-c2ccc(Oc3ccc(Cl)cc3)cc2)n1
IC50 [8]: 4.8 µM | IC50 (Cytochrome P450 3A5): > 20 µM | IC50 (Cytochrome P450 2C9): > 20 µM | half-life [6]: 30 min | IC50 (Cytochrome P450 2D6): > 20 µM

C[C@H](Cc1ccccc1)Oc1ccc(-c2nnn(C[C@@H](N)CC(=O)O)n2)cc1
solubility [7]: 391 µM (≈ 149 µg/mL)

CCCCCOc1ccc(-c2nnn(C[C@H](N)CC(=O)O)n2)cc1
solubility [7]: 65 µM (≈ 21.7 µg/mL)

N[C@@H](CC(=O)O)Cn1nnc(-c2ccc(Oc3nc4ccccc4s3)cc2)n1
solubility [7]: 35 µM (≈ 13.9 µg/mL)

O=C(O)CCn1nnc(-c2ccc(Oc3ccc(Cl)cc3)cc2)n1
IC50 [8]: > 30 µM | IC50 (Cytochrome P450 3A5): > 20 µM | IC50 (Cytochrome P450 2C9): > 20 µM | half-life [6]: 114 min | IC50 (Cytochrome P450 2D6): > 20 µM

N[C@H](CC(=O)O)Cn1nnc(-c2ccc(Oc3nc4ccccc4s3)cc2)n1
solubility [7]: 23 µM (≈ 9.12 µg/mL)

N[C@H](CC(=O)O)Cn1nnc(-c2ccc(Oc3ccc(Cl)cc3)cc2)n1
half-life [6]: 240 min | solubility [7]: 28 µM (≈ 10.5 µg/mL)

CC(=O)NCCn1nnc(-c2ccc(Oc3ccc(Cl)cc3)cc2)n1
IC50 [8]: > 30 µM | IC50 (Cytochrome P450 3A5): > 20 µM | IC50 (Cytochrome P450 2C9): > 20 µM | half-life [6]: > 55 min | IC50 (Cytochrome P450 2D6): > 20 µM

NCCn1nnc(-c2ccc(Oc3ccc(Cl)cc3)cc2)n1
half-life [6]: 15 min

COc1cnc(Oc2ccc(-c3nnn(C[C@H](N)CC(=O)O)n3)cc2)nc1
solubility [7]: > 1000 µM

Cc1ccc(Oc2ccc(-c3nnn(CCN)n3)cc2)cc1
IC50 [8]: 5.8 µM | IC50 (Cytochrome P450 3A5): > 20 µM | IC50 (Cytochrome P450 2C9): 1.4 µM | half-life [6]: 5 min | IC50 (Cytochrome P450 2D6): 14 µM

N[C@H](CC(=O)O)Cn1nnc(-c2ccc(Oc3ccc(-c4ncco4)cc3)cc2)n1
solubility [7]: 17 µM (≈ 6.91 µg/mL)

N[C@H](CC(=O)O)Cn1nnc(-c2ccc(Oc3ncc(Cl)cc3F)cc2)n1
solubility [7]: 398 µM (≈ 156 µg/mL)

C[C@@H](N)Cn1nnc(-c2ccc(Oc3ccc(Cl)cc3)cc2)n1
IC50 [8]: > 30 µM | IC50 (Cytochrome P450 3A5): > 20 µM | IC50 (Cytochrome P450 2C9): > 20 µM | half-life [6]: 33 min | IC50 (Cytochrome P450 2D6): > 20 µM

O=C(O)c1ccc(CN2C[C@@H]3C[C@H]2CN3Cc2ccc(Oc3ccc(-c4ncco4)cc3)cc2)cc1 [ACEBILUSTAT]
concentration at 72 h [9]: 554 nM | concentration at 72 h [10]: 1860 nM | concentration at 72 h [11]: 166 nM | IC50 [12]: 0.0049 µM | concentration at 72 h [13]: 9 nM | concentration at 72 h [14]: 32 nM | IC50 [15]: 0.142 µM | concentration at 72 h [16]: 14600 nM | concentration at 72 h [17]: 826 nM | concentration at 72 h [18]: 3820 nM | IC50 [19]: 0.024 µM | concentration at 72 h [20]: 94 nM | concentration at 72 h [21]: 597 nM | concentration at 72 h [22]: 488 nM | IC90 [23]: 0.181 µM | IC90 [24]: 0.728 µM | concentration at 72 h [25]: 7620 nM

O=C(O)CCCn1nnc(-c2ccc(Oc3ccc(Cl)cc3)cc2)n1
IC50 [8]: > 30 µM | IC50 (Cytochrome P450 3A5): > 20 µM | IC50 (Cytochrome P450 2C9): > 20 µM | half-life [6]: 405 min | IC50 (Cytochrome P450 2D6): > 20 µM

C[C@H](CN)n1nnc(-c2ccc(Oc3ccc(Cl)cc3)cc2)n1
IC50 [8]: > 30 µM | IC50 (Cytochrome P450 3A5): > 20 µM | IC50 (Cytochrome P450 2C9): 2 µM | half-life [6]: 15 min | IC50 (Cytochrome P450 2D6): 11 µM

N[C@H](CC(=O)O)Cn1nnc(-c2ccc(OCCc3ccccc3)cc2)n1
solubility [7]: 23 µM (≈ 8.45 µg/mL)

O=C(O)CCCN1CCC[C@H]1COc1ccc(Oc2ccc(Cl)cc2)cc1
IC90 [23]: 1.07 µM | IC90 [24]: 5.05 µM

N[C@H](CC(=O)O)Cn1nnc(-c2ccc(Oc3ccc(F)cc3)cc2)n1
solubility [7]: 135 µM (≈ 48.2 µg/mL)

N[C@@H](CC(=O)O)Cn1nnc(-c2ccc(COCc3ccccc3)cc2)n1
solubility [7]: 166 µM (≈ 61 µg/mL)

N[C@@H](Cn1nnc(-c2ccc(Oc3ccc(Cl)cc3)cc2)n1)C(=O)O
half-life [6]: > 55 min

N[C@H](CC(=O)O)Cn1nnc(-c2ccc(Oc3ccc(Cl)cn3)cc2)n1
solubility [7]: 344 µM (≈ 129 µg/mL)

CC(=O)N[C@H]1C[C@H]2CC[C@@H](C1)N2Cc1ccc(Oc2nc3ncccc3s2)cc1
IC50 [12]: 0.0019 µM | IC50 [15]: 0.048 µM | IC50 [19]: 0.018 µM | IC90 [23]: 0.092 µM | IC90 [24]: 0.104 µM

O=C(O)CNCCn1nnc(-c2ccc(Oc3ccc(Cl)cc3)cc2)n1
half-life [6]: 142 min
